The source made the active and inactive calls. The rule behind the calls is not given here.
Columns and labels:
HL-60 = assay: Antitumor activity against human HL60 cells; type: functional, cell-based
Bel-7402 = assay: Antitumor activity against human Bel7402 cells; type: functional, cell-based

Row | Compound | Activity (HL-60) | Activity (Bel-7402)
1 | CC(C)c1cc2c(c(O)c1O)[C@@]1(C)CCCC(C)(C)C1=CC2=O | Active | Active
2 | CC(C)C1=CC2=C[C@H]3Oc4c(c(C(C)C)cc5c4[C@]4(C)CCCC(C)(C)C4=CC5=O)O[C@]34C(C)(C)CCC[C@@]4(C)C2=C(O)C1=O | inactive | inactive
